Structures can show the parent of a compound that is named as a salt.
Target: TrkA (Homo sapiens (Human), UniProt P04629)
Test: TrkA Omnia Assay
Type: biochemical
Conditions: averaged IC50; 20 nM enzyme, 500 μM ATP, 10 μM peptide substrate
In short: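 Recombinant TrkA (20 nM) preincubated 10 min at ambient temperature with compound, then Omnia Tyr Peptide #4 (10 μM) and ATP (500 μM) added in 25 mM MOPS pH 7.5, 5 mM MgCl2, 0.005% Triton X-100. Fluorescence (ex 360/em 485 nm) followed continuously for 70 min; IC50 from initial rates by 4- or 5-parameter logistic fit.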

Sequence of TrkA (P04629 33-796): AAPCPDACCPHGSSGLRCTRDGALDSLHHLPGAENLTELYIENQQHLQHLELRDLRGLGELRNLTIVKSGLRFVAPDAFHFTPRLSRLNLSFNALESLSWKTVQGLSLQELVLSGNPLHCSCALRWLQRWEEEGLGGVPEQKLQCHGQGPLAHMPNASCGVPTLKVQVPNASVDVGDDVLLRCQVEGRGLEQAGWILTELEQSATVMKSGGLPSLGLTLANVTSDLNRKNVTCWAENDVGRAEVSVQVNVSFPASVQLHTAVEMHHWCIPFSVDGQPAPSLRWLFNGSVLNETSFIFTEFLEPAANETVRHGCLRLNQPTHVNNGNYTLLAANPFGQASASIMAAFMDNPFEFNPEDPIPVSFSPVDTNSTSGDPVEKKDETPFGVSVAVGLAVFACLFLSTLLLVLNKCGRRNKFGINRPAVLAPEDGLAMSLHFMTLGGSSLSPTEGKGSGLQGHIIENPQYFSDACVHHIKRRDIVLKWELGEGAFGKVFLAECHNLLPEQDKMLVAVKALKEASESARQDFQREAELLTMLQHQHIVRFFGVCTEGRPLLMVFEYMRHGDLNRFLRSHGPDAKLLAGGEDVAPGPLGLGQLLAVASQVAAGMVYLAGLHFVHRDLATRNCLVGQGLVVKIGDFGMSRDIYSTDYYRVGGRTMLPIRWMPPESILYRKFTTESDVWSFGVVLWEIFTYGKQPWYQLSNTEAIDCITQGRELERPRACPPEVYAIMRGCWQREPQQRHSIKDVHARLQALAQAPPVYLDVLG

| Structure (SMILES) | IC50 [nM] |
| --- | --- |
| COCCN1C[C@@H](NC(=O)Nc2c(C)c(OC[C@H](O)COC)nn2-c2ccccc2)[C@H](c2ccc(F)c(F)c2)C1 [Example 563, 1-((3S,4R)-4-(3,4-difluorophenyl)-1-(2-methoxyethyl)pyrrolidin-3-yl)-3-(3-((R)-2-hydroxy-3-methoxypropoxy)-4-methyl-1-phenyl-1H-pyrazol-5-yl)urea] | < 100 |
| COCCN1C[C@@H](NC(=O)Nc2c(C)c(OC[C@@H](O)COC)nn2-c2ccccc2)[C@H](c2cc(F)c(F)c(F)c2)C1 [Example 564, 1-(3-((S)-2-hydroxy-3-methoxypropoxy)-4-methyl-1-phenyl-1H-pyrazol-5-yl)-3-((3S,4R)-1-(2-methoxyethyl)-4-(3,4,5-trifluorophenyl)pyrrolidin-3-yl)urea] | < 100 |
| COCCN1C[C@@H](NC(=O)Nc2c(C)c(OC[C@H](O)COC)nn2-c2ccccc2)[C@H](c2cc(F)c(F)c(F)c2)C1 [Example 565, 1-(3-((R)-2-hydroxy-3-methoxypropoxy)-4-methyl-1-phenyl-1H-pyrazol-5-yl)-3-((3S,4R)-1-(2-methoxyethyl)-4-(3,4,5-trifluorophenyl)pyrrolidin-3-yl)urea] | < 100 |
| COCCN1C[C@@H](NC(=O)Nc2c(Br)c(-c3cnn(C)c3)nn2C)[C@H](c2ccc(F)c(F)c2)C1 [Example 566, 1-(4-bromo-1,1′-dimethyl-1H, 1′H-[3,4′-bipyrazol]-5-yl)-3-((3S,4R)-4-(3,4-difluorophenyl)-1-(2-methoxyethyl)pyrrolidin-3-yl)urea] | 100 to 1000 |
| COCCN1C[C@@H](NC(=O)Nc2c(Cl)c(-c3cnn(C)c3)nn2C)[C@H](c2ccc(F)c(F)c2)C1 [Example 567, 1-(4-chloro-1,1′-dimethyl-1H, 1′H-[3,4′-bipyrazol]-5-yl)-3-((3S,4R)-4-(3,4-difluorophenyl)-1-(2-methoxyethyl)pyrrolidin-3-yl)urea] | 100 to 1000 |
| COCCN1C[C@@H](NC(=O)Nc2c(Cl)c(C3CCOCC3)nn2-c2ccccc2)[C@H](c2ccc(F)c(F)c2)C1 [Example 568, 1-(4-chloro-1-phenyl-3-(tetrahydro-2H-pyran-4-yl)-1H-pyrazol-5-yl)-3-((3S,4R)-4-(3,4-difluorophenyl)-1-(2-methoxyethyl)pyrrolidin-3-yl)urea] | < 100 |
| COCCN1C[C@@H](NC(=O)Nc2c(Cl)c(C3CCN(C(=O)OC(C)(C)C)CC3)nn2-c2ccccc2)[C@H](c2ccc(F)c(F)c2)C1 [Example 569, Tert-butyl 4-(4-chloro-5-(3-((3S,4R)-4-(3,4-difluorophenyl)-1-(2-methoxyethyl)pyrrolidin-3-yl)ureido)-1-phenyl-1H-pyrazol-3-yl)piperidine-1-carboxylate] | < 100 |
| COCCN1C[C@@H](NC(=O)Nc2c(Cl)c(C3CCOCC3)nn2-c2ccccc2)[C@H](c2ccc(F)cc2)C1 [Example 570, 1-(4-chloro-1-phenyl-3-(tetrahydro-2H-pyran-4-yl)-1H-pyrazol-5-yl)-3-((3S,4R)-4-(4-fluorophenyl)-1-(2-methoxyethyl)pyrrolidin-3-yl)urea] | < 100 |
| COCCN1C[C@@H](NC(=O)Nc2c(Cl)c(-c3c(C)noc3C)nn2-c2ccccc2)[C@H](c2ccc(F)c(F)c2)C1 [Example 571, 1-(4-chloro-3-(3,5-dimethylisoxazol-4-yl)-1-phenyl-1H-pyrazol-5-yl)-3-((3S,4R)-4-(3,4-difluorophenyl)-1-(2-methoxyethyl)pyrrolidin-3-yl)urea] | < 100 |
| COCCN1C[C@@H](NC(=O)Nc2c(Cl)c([C@H]3CCCN3C(=O)OC(C)(C)C)nn2-c2ccccc2)[C@H](c2ccc(F)c(F)c2)C1 [Example 572, (R)-tert-butyl 2-(4-chloro-5-(3-((3S,4R)-4-(3,4-difluorophenyl)-1-(2-methoxyethyl)pyrrolidin-3-yl)ureido)-1-phenyl-1H-pyrazol-3-yl)pyrrolidine-1-carboxylate] | 100 to 1000 |
| COCCN1C[C@@H](NC(=O)Nc2c(Cl)c([C@@H]3CCCN3C(=O)OC(C)(C)C)nn2-c2ccccc2)[C@H](c2ccc(F)c(F)c2)C1 [Example 573, (S)-tert-butyl 2-(4-chloro-5-(3-((3S,4R)-4-(3,4-difluorophenyl)-1-(2-methoxyethyl)pyrrolidin-3-yl)ureido)-1-phenyl-1H-pyrazol-3-yl)pyrrolidine-1-carboxylate] | 100 to 1000 |
| COCCN1C[C@@H](NC(=O)Nc2c(Br)c(C3CCOCC3)nn2-c2ccccc2)[C@H](c2ccc(F)c(F)c2)C1 [Example 574, 1-(4-bromo-1-phenyl-3-(tetrahydro-2H-pyran-4-yl)-1H-pyrazol-5-yl)-3-((3S,4R)-4-(3,4-difluorophenyl)-1-(2-methoxyethyl)pyrrolidin-3-yl)urea] | < 100 |
| COCCN1C[C@@H](NC(=O)Nc2c(Br)c(C3CCN(C(=O)OC(C)(C)C)CC3)nn2-c2ccccc2)[C@H](c2ccc(F)c(F)c2)C1 [Example 575, Tert-butyl 4-(4-bromo-5-(3-((3S,4R)-4-(3,4-difluorophenyl)-1-(2-methoxyethyl)pyrrolidin-3-yl)ureido)-1-phenyl-1H-pyrazol-3-yl)piperidine-1-carboxylate] | < 100 |
| COCCN1C[C@@H](NC(=O)Nc2c(Br)c(C3CCOCC3)nn2-c2ccccc2)[C@H](c2ccc(F)cc2)C1 [Example 576, 1-(4-bromo-1-phenyl-3-(tetrahydro-2H-pyran-4-yl)-1H-pyrazol-5-yl)-3-((3S,4R)-4-(4-fluorophenyl)-1-(2-methoxyethyl)pyrrolidin-3-yl)urea] | < 100 |
| COCCN1C[C@@H](NC(=O)Nc2c(Br)c(-c3c(C)noc3C)nn2-c2ccccc2)[C@H](c2ccc(F)c(F)c2)C1 [Example 577, 1-(4-bromo-3-(3,5-dimethylisoxazol-4-yl)-1-phenyl-1H-pyrazol-5-yl)-3-((3S,4R)-4-(3,4-difluorophenyl)-1-(2-methoxyethyl)pyrrolidin-3-yl)urea] | < 100 |
| COCCN1C[C@@H](NC(=O)Nc2c(Br)c([C@H]3CCCN3C(=O)OC(C)(C)C)nn2-c2ccccc2)[C@H](c2ccc(F)c(F)c2)C1 [Example 578, (R)-tert-butyl 2-(4-bromo-5-(3-((3S,4R)-4-(3,4-difluorophenyl)-1-(2-methoxyethyl)pyrrolidin-3-yl)ureido)-1-phenyl-1H-pyrazol-3-yl)pyrrolidine-1-carboxylate] | 100 to 1000 |
| COCCN1C[C@@H](NC(=O)Nc2c(Br)c(COC3CCN(C(=O)OC(C)(C)C)CC3)nn2-c2ccccc2)[C@H](c2ccc(F)c(F)c2)C1 [Example 579, tert-butyl 4-((4-bromo-5-(3-((3S,4R)-4-(3,4-difluorophenyl)-1-(2-methoxyethyl)pyrrolidin-3-yl)ureido)-1-phenyl-1H-pyrazol-3-yl)methoxy)piperidine-1-carboxylate] | < 100 |
| COCCN1C[C@@H](NC(=O)Nc2cc(C3CCNCC3)nn2-c2ccccc2)[C@H](c2ccc(F)c(F)c2)C1 [Example 580, 1-((3S,4R)-4-(3,4-difluorophenyvl)-1-(2-methoxyethyl)pyrrolidin-3-yl)-3-(1-phenyl-3-(piperidin-4-yl)-1H-pyrazol-5-yl)urea dihydrochloride] | 100 to 1000 |
| COCCN1C[C@@H](NC(=O)Nc2c(Cl)c(C3CCNCC3)nn2-c2ccccc2)[C@H](c2ccc(F)c(F)c2)C1 [Example 581, 1-(4-chloro-1-phenyl-3-(piperidin-4-yl)-1H-pyrazol-5-yl)-3-((3S,4R)-4-(3,4-difluorophenyl)-1-(2-methoxyethyl)pyrrolidin-3-yl)urea dihydrochloride] | < 100 |
| COCCN1C[C@@H](NC(=O)Nc2c(Br)c(C3CCNCC3)nn2-c2ccccc2)[C@H](c2ccc(F)c(F)c2)C1 [Example 582, 1-(4-bromo-1-phenyl-3-(piperidin-4-yl)-1H-pyrazol-5-yl)-3-((3S,4R)-4-(3,4-difluorophenyl)-1-(2-methoxyethyl)pyrrolidin-3-yl)urea dihydrochloride] | < 100 |
| COCCN1C[C@@H](NC(=O)Nc2c(C)c([C@H]3CCCN3)nn2-c2ccccc2)[C@H](c2ccc(F)c(F)c2)C1 [Example 583, 1-((3S,4R)-4-(3,4-difluorophenyl)-1-(2-methoxyethyl)pyrrolidin-3-yl)-3-(4-methyl-1-phenyl-3-((R)-pyrrolidin-2-yl)-1H-pyrazol-5-yl)urea dihydrochloride] | < 100 |
| COCCN1C[C@@H](NC(=O)Nc2c(C)c([C@@H]3CCCN3)nn2-c2ccccc2)[C@H](c2ccc(F)c(F)c2)C1 [Example 584, 1-((3S,4R)-4-(3,4-difluorophenyl)-1-(2-methoxyethyl)pyrrolidin-3-yl)-3-(4-methyl-1-phenyl-3-((S)-pyrrolidin-2-yl)-1H-pyrazol-5-yl)urea dihydrochloride] | < 100 |
| COCCN1C[C@@H](NC(=O)Nc2c(Cl)c([C@H]3CCCN3)nn2-c2ccccc2)[C@H](c2ccc(F)c(F)c2)C1 [Example 585, 1-((3S,4R)-4-(3,4-difluorophenyl)-1-(2-methoxyethyl)pyrrolidin-3-yl)-3-(4-chloro-1-phenyl-3-((R)-pyrrolidin-2-yl)-1H-pyrazol-5-yl)urea dihydrochloride] | < 100 |
| COCCN1C[C@@H](NC(=O)Nc2c(C)c([C@@H]3CCCN3)nn2-c2ccccc2)[C@H](c2cc(F)cc(F)c2)C1 [Example 586, 1-((3S,4R)-4-(3,5-difluorophenyl)-1-(2-methoxyethyl)pyrrolidin-3-yl)-3-(4-methyl-1-phenyl-3-((S)-pyrrolidin-2-yl)-1H-pyrazol-5-yl)urea dihydrochloride] | < 100 |
| COCCN1C[C@@H](NC(=O)Nc2c(Cl)c([C@@H]3CCCN3)nn2-c2ccccc2)[C@H](c2ccc(F)c(F)c2)C1 [Example 587, 1-((3S,4R)-4-(3,4-difluorophenyl)-1-(2-methoxyethyl)pyrrolidin-3-yl)-3-(4-chloro-1-phenyl-3-((S)-pyrrolidin-2-yl)-1H-pyrazol-5-yl)urea dihydrochloride] | < 100 |
